Reference: ChEMBL document CHEMBL1201862, “PubChem BioAssay data set” (2004)
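1) Cells in 96-well plates. 2) Compound, 48 h, 5 concentrations. 3) Linear interpolation between surrounding doses. 4) Unreached endpoint = highest concentration. The concentration for 50% growth inhibition is given as GI50.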 Activity calls are given as the source filed them. No stated cut-off is given here; in the data, active = GI50 up to about 1.1 µM and inactive = higher.

Tests used:
Test in all cases: NCI anticancer screen, dose series, 48 h
UACC-257 = system: UACC-257
SK-OV-3 = system: SK-OV-3
NCI-H23 = system: NCI-H23
LOX IMVI = system: LOX IMVI
SNB-19 = system: SNB-19
NCI-H226 = system: NCI-H226
HCT-116 = system: HCT-116
KM12 = system: KM12
SF-295 = system: SF-295
SNB-75 = system: SNB-75
SK-MEL-5 = system: SK-MEL-5
OVCAR-4 = system: OVCAR-4
NCI-H522 = system: NCI-H522
A498 = system: A498
Hs-578T = system: Hs-578T
EKVX = system: EKVX
SR = system: SR
HOP-62 = system: HOP-62
HL-60 = system: HL-60
MOLT-4 = system: MOLT-4

Measured: GI50

Cn1c2c(c3ccccc31)CC(=S)N1CCCC(CC2O)C1 (configuration not stated)
inactive: UACC-257 > 100 µM | SK-OV-3 > 100 µM | NCI-H23 > 100 µM | LOX IMVI > 100 µM | SNB-19 > 100 µM | NCI-H226 > 100 µM | HCT-116 > 100 µM | KM12 > 100 µM | SF-295 > 100 µM | SNB-75 > 100 µM | SK-MEL-5 > 100 µM | OVCAR-4 > 100 µM | NCI-H522 > 100 µM | A498 > 100 µM | Hs-578T > 100 µM

O=C(O)c1cc(=O)c2cc(C(=O)c3cccs3)c(Cl)c(Cl)c2o1
inactive: UACC-257 > 100 µM | SK-OV-3 > 100 µM | EKVX > 100 µM | NCI-H23 > 100 µM | SNB-19 > 100 µM | NCI-H226 > 100 µM | SR > 100 µM | HOP-62 > 100 µM | KM12 > 100 µM | SF-295 > 100 µM | HL-60 > 100 µM | SNB-75 > 100 µM | SK-MEL-5 > 100 µM | OVCAR-4 > 100 µM | MOLT-4 > 100 µM | NCI-H522 > 100 µM | A498 > 100 µM

NC(=O)CC1(O)C=CC(=O)C=C1
inactive: UACC-257 > 100 µM | SK-OV-3 > 100 µM | EKVX > 100 µM | NCI-H23 > 100 µM | LOX IMVI > 100 µM | SNB-19 > 100 µM | NCI-H226 > 100 µM | SR 88.7 µM | HCT-116 > 100 µM | HOP-62 > 100 µM | KM12 > 100 µM | SF-295 > 100 µM | HL-60 > 100 µM | SNB-75 > 100 µM | SK-MEL-5 > 100 µM | OVCAR-4 > 100 µM | MOLT-4 > 100 µM | NCI-H522 26.8 µM | A498 > 100 µM

Cc1sc2nc3n(c(=O)c2c1C)N=CN(c1ccc(Cl)cc1)C3
inactive: UACC-257 > 100 µM | SK-OV-3 > 100 µM | EKVX > 100 µM | NCI-H23 > 100 µM | LOX IMVI > 100 µM | SNB-19 > 100 µM | NCI-H226 > 100 µM | SR 63.4 µM | HCT-116 > 100 µM | HOP-62 99.3 µM | KM12 > 100 µM | SF-295 > 100 µM | SNB-75 > 100 µM | SK-MEL-5 > 100 µM | OVCAR-4 > 100 µM | MOLT-4 > 100 µM | NCI-H522 58.7 µM | A498 > 100 µM

COCCN1C2=CCCCC2=Nc2c(N)nc(N)nc21
inactive: UACC-257 > 100 µM | SK-OV-3 > 100 µM | NCI-H23 > 100 µM | LOX IMVI > 100 µM | SNB-19 > 100 µM | NCI-H226 > 100 µM | SR > 100 µM | HCT-116 > 100 µM | HOP-62 > 100 µM | KM12 > 100 µM | SF-295 > 100 µM | HL-60 > 100 µM | SNB-75 > 100 µM | SK-MEL-5 > 100 µM | MOLT-4 > 100 µM | NCI-H522 > 100 µM | A498 > 100 µM

Oc1cn(-c2ccc(Cl)cc2)nc1-c1nnc(Nc2ccccc2)o1
inactive: UACC-257 21.3 µM | SK-OV-3 24.3 µM | EKVX 23.9 µM | NCI-H23 14.1 µM | SNB-19 20.9 µM | NCI-H226 8.39 µM | HCT-116 16.1 µM | HOP-62 17.7 µM | KM12 17.7 µM | SF-295 18.9 µM | SNB-75 20.8 µM | SK-MEL-5 11.4 µM | OVCAR-4 34.8 µM | NCI-H522 17.3 µM | A498 12.6 µM | Hs-578T 24.1 µM

COc1ccc(OC)c(NC(=O)C(=O)NNC(=O)c2sc(NNC(C)=O)nc2C)c1
inactive: UACC-257 23.6 µM | SK-OV-3 57.7 µM | EKVX 37.5 µM | NCI-H23 21.8 µM | LOX IMVI 26.2 µM | SNB-19 59.4 µM | NCI-H226 32.7 µM | SR 32.1 µM | HCT-116 28.6 µM | HOP-62 92.9 µM | KM12 39.4 µM | SF-295 32 µM | HL-60 36.2 µM | SK-MEL-5 39.9 µM | OVCAR-4 26.3 µM | MOLT-4 18.7 µM | NCI-H522 18.2 µM | A498 8.3 µM

CC#CC1C2CCCC1(CSc1ccccc1)NC(=O)O2 (configuration not stated)
inactive: UACC-257 > 100 µM | SK-OV-3 > 100 µM | EKVX > 100 µM | NCI-H23 > 100 µM | SNB-19 > 100 µM | NCI-H226 > 100 µM | SR > 100 µM | HCT-116 > 100 µM | HOP-62 > 100 µM | KM12 > 100 µM | SF-295 > 100 µM | HL-60 > 100 µM | SNB-75 > 100 µM | SK-MEL-5 > 100 µM | OVCAR-4 > 100 µM | MOLT-4 30.3 µM | NCI-H522 > 100 µM | A498 > 100 µM

O=c1c2ccccc2nc(-c2ccccc2)n1NC(=S)Nc1ccc(Cl)cc1[N+](=O)[O-]
inactive: UACC-257 88.3 µM | SK-OV-3 > 100 µM | NCI-H23 > 100 µM | LOX IMVI 56.8 µM | NCI-H226 20.3 µM | SR 33.3 µM | HCT-116 54.2 µM | HOP-62 77.3 µM | KM12 66.4 µM | SF-295 92.3 µM | HL-60 35.3 µM | SNB-75 29.2 µM | SK-MEL-5 58.7 µM | OVCAR-4 88.5 µM | MOLT-4 73.3 µM | NCI-H522 42.7 µM | A498 94 µM

C/C=C1\CNC1C(=O)O (configuration not stated)
inactive: UACC-257 > 100 µM | SK-OV-3 > 100 µM | EKVX > 100 µM | NCI-H23 > 100 µM | LOX IMVI > 100 µM | SNB-19 > 100 µM | HCT-116 > 100 µM | HOP-62 > 100 µM | SF-295 > 100 µM | HL-60 > 100 µM | SK-MEL-5 > 100 µM | OVCAR-4 > 100 µM | A498 > 100 µM | Hs-578T > 100 µM

COC(=O)C1Cc2c([nH]c3ccccc23)C(c2ccccc2O)N1Cc1ccccc1 (configuration not stated)
inactive: UACC-257 33.7 µM | SK-OV-3 30.8 µM | EKVX > 31.6 µM | NCI-H23 44.3 µM | LOX IMVI 44.9 µM | SNB-19 > 31.6 µM | NCI-H226 35.7 µM | SR 28.4 µM | HCT-116 23.3 µM | HOP-62 41.2 µM | KM12 > 31.6 µM | SF-295 21 µM | HL-60 > 46.5 µM | SNB-75 7.05 µM | SK-MEL-5 27.2 µM | OVCAR-4 24.4 µM | MOLT-4 42.1 µM | NCI-H522 16.4 µM | A498 28.9 µM

NCc1ccc(O)c(O)c1
inactive: UACC-257 > 100 µM | SK-OV-3 > 100 µM | EKVX > 100 µM | NCI-H23 > 100 µM | LOX IMVI > 100 µM | SNB-19 > 100 µM | NCI-H226 > 100 µM | SR 38.5 µM | HCT-116 > 100 µM | HOP-62 > 100 µM | KM12 > 100 µM | SF-295 > 100 µM | HL-60 12.5 µM | SNB-75 > 100 µM | SK-MEL-5 > 100 µM | OVCAR-4 > 100 µM | MOLT-4 27.1 µM | A498 > 100 µM

CCCCC1CC(c2ccc(Cl)cc2)=NO1 (configuration not stated)
inactive: UACC-257 > 100 µM | SK-OV-3 > 100 µM | EKVX > 100 µM | NCI-H23 > 100 µM | SNB-19 > 100 µM | NCI-H226 > 100 µM | SR > 100 µM | HCT-116 > 100 µM | HOP-62 > 100 µM | KM12 > 100 µM | SF-295 > 100 µM | HL-60 85.3 µM | SNB-75 > 100 µM | SK-MEL-5 > 100 µM | OVCAR-4 > 100 µM | MOLT-4 > 100 µM | NCI-H522 > 100 µM | A498 > 100 µM

c1cc2[se][se]c3c4cccc5[se][se]c(c(c1)c23)c54
inactive: UACC-257 > 100 µM | SK-OV-3 > 100 µM | NCI-H23 > 100 µM | LOX IMVI > 100 µM | SNB-19 > 100 µM | NCI-H226 > 100 µM | SR > 100 µM | HCT-116 > 100 µM | HOP-62 > 100 µM | KM12 > 100 µM | SF-295 > 100 µM | HL-60 > 100 µM | SNB-75 > 100 µM | SK-MEL-5 > 100 µM | OVCAR-4 > 100 µM | MOLT-4 > 100 µM | NCI-H522 > 100 µM | A498 > 100 µM

Cc1ccccc1-n1c(C)nc2c1C(=O)c1ccccc1C2=O
inactive: UACC-257 35.2 µM | EKVX > 100 µM | NCI-H23 35.4 µM | SNB-19 55.5 µM | NCI-H226 48.3 µM | SR 38.9 µM | HCT-116 35.1 µM | HOP-62 > 100 µM | KM12 58.9 µM | SF-295 67 µM | HL-60 20.9 µM | SK-MEL-5 22.1 µM | OVCAR-4 27.5 µM | MOLT-4 32 µM | NCI-H522 21.2 µM | A498 > 100 µM

COCOc1ccc(C2(O)Oc3cc(OCOC)ccc3C2C)c(O)c1 (configuration not stated)
inactive: UACC-257 12.1 µM | SK-OV-3 17.5 µM | EKVX 14.6 µM | NCI-H23 11.2 µM | LOX IMVI 16.9 µM | SNB-19 16 µM | NCI-H226 14.8 µM | SR 6.95 µM | HCT-116 14.3 µM | HOP-62 18 µM | KM12 16.7 µM | SF-295 14.5 µM | HL-60 10.5 µM | SNB-75 15.3 µM | SK-MEL-5 11 µM | OVCAR-4 17.3 µM | MOLT-4 10.3 µM | NCI-H522 18.2 µM | A498 15.5 µM
